Assay results: the supplement of paper PMC10627819

What was measured:
[1] = test system: B. subtilis 168; assay: fitness (endpoint OD595 vs no drug) (fraction); higher = more growth
In short: (§1)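 At 37 °C, bacteria in TSB, LB Lennox or CY were grown in 384-well plates from a starting OD595 of 0.01. OD595 was measured every 30 min for 14 h, with the first reading used as background. Fitness is the optical density at the switch to stationary phase as a fraction of the robust mean of no-drug control wells, capped at 1.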

[2] = test system: S. pneumoniae D39V; assay: as above
In short: as §1

[3] = test system: S. aureus Newman; assay: Bliss interaction score (quartile over a dose matrix) (fitness difference); higher = more antagonism (negative = synergy)
In short: (§2)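 OD595 was read at entry into stationary phase and expressed relative to the robust mean of the no-drug wells on the same plate, capped at 1. The resulting ratio is the fitness value. The Bliss score, observed fitness minus product-based expected fitness with single-drug fitness inferred from combinations, is summarised by quartiles over technical, biological and donor/recipient replicates.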

[4] = test system: B. subtilis 168; assay: as above
In short: as §2

[5] = test system: S. pneumoniae D39V; assay: as above
In short: as §2

[6] = test system: S. aureus DSM 20231; assay: as above
In short: as §2
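Wherever Bliss interaction score (quartile over a dose matrix) is given: first quartile when negative (synergy) and third quartile when positive (antagonism).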

C[C@H]1COc2c(N3CCN(C)CC3)c(F)cc3c(=O)c(C(=O)O)cn1c23 [Levofloxacin] + CC1=C\[C@@H](O)CC(=O)Cc2nc(co2)C(=O)N2CCC=C2C(=O)O[C@H](C(C)C)[C@H](C)/C=C/C(=O)NC\C=C\1 [Virginiamycin M1]
fitness, one replicate
Conditions | partner 0.0625 µg/mL | partner 0.125 µg/mL | partner 0.15 µg/mL | partner 0.25 µg/mL | partner 0.3 µg/mL | partner 0.5 µg/mL | partner 1 µg/mL
[1], first compound 0.001 µg/mL | 0.869 | 0.947 | – | 0.969 | – | – | –
[1], first compound 0.002 µg/mL | 0.949 | 0.971 | – | 0.936 | – | – | –
[1], first compound 0.0039 µg/mL | 0.887 | 0.918 | – | 0.904 | – | – | –
[2], first compound 0.2 µg/mL | – | – | 0.954 | – | 0.876 | 0.925 | 0.937
[2], first compound 0.4 µg/mL | – | – | 0.921 | – | 0.913 | 0.834 | 0.832
[2], first compound 0.8 µg/mL | – | – | 0.829 | – | 0.797 | 0.539 | 0.391

Conditions | fitness
[1], first compound 0.0312 µg/mL, partner 0.0625 µg/mL | 0.0334
[1], first compound 0.0312 µg/mL, partner 0.125 µg/mL | 0.0383
[1], first compound 0.0312 µg/mL, partner 0.25 µg/mL | 0.0414
[1], first compound 0.0625 µg/mL, partner 0.0625 µg/mL | 0.0348
[1], first compound 0.0625 µg/mL, partner 0.125 µg/mL | 0.0328
[1], first compound 0.0625 µg/mL, partner 0.25 µg/mL | 0.0437
[1], first compound 0.125 µg/mL, partner 0.0625 µg/mL | 0.0353
[1], first compound 0.125 µg/mL, partner 0.125 µg/mL | 0.0443
[1], first compound 0.125 µg/mL, partner 0.25 µg/mL | 0.0489
[2], first compound 0.1725 µg/mL, partner 0.5 µg/mL | 0.998
[2], first compound 0.1725 µg/mL, partner 1 µg/mL | 0.992
[2], first compound 0.1725 µg/mL, partner 2 µg/mL | 0.969
[2], first compound 0.2 µg/mL, partner 2 µg/mL | 0.896
[2], first compound 0.345 µg/mL, partner 0.5 µg/mL | 0.92
[2], first compound 0.345 µg/mL, partner 1 µg/mL | 0.904
[2], first compound 0.345 µg/mL, partner 2 µg/mL | 0.9
[2], first compound 0.4 µg/mL, partner 2 µg/mL | 0.817
[2], first compound 0.69 µg/mL, partner 0.5 µg/mL | 0.539
[2], first compound 0.69 µg/mL, partner 1 µg/mL | 0.464
[2], first compound 0.69 µg/mL, partner 2 µg/mL | 0.458
[2], first compound 0.8 µg/mL, partner 2 µg/mL | 0.567

Conditions | Bliss interaction score
[3] | -0.0223
[4] | 0.0195
[5] | 0.0593
[6] | -0.0827

C[C@H]1COc2c(N3CCN(C)CC3)c(F)cc3c(=O)c(C(=O)O)cn1c23 [Levofloxacin] + CC(=O)NC[C@H]1CN(c2ccc(N3CCOCC3)c(F)c2)C(=O)O1 [Linezolid]
fitness, [1], one replicate
Conditions | first compound 0.001 µg/mL | first compound 0.002 µg/mL | first compound 0.0039 µg/mL | first compound 0.0078 µg/mL
partner 0.0625 µg/mL | – | 0.886 | 0.846 | 0.862
partner 0.125 µg/mL | 0.82 | – | – | 0.615
partner 0.25 µg/mL | 0.66 | – | – | 0.0853
partner 0.5 µg/mL | 0.0709 | 0.0326 | 0.0626 | –

Conditions | fitness
[1], first compound 0.002 µg/mL, partner 0.125 µg/mL | 0.696
[1], first compound 0.0039 µg/mL, partner 0.125 µg/mL | 0.683
[1], first compound 0.0312 µg/mL, partner 0.125 µg/mL | 0.0311
[1], first compound 0.0312 µg/mL, partner 0.25 µg/mL | 0.0424
[1], first compound 0.0312 µg/mL, partner 0.5 µg/mL | 0.045
[1], first compound 0.0625 µg/mL, partner 0.125 µg/mL | 0.0397
[1], first compound 0.0625 µg/mL, partner 0.25 µg/mL | 0.0517
[1], first compound 0.0625 µg/mL, partner 0.5 µg/mL | 0.0516
[1], first compound 0.125 µg/mL, partner 0.125 µg/mL | 0.0523
[1], first compound 0.125 µg/mL, partner 0.25 µg/mL | 0.0524
[1], first compound 0.125 µg/mL, partner 0.5 µg/mL | 0.0424
[2], first compound 0.1725 µg/mL, partner 0.2 µg/mL | 0.848
[2], first compound 0.1725 µg/mL, partner 0.4 µg/mL | 0.669
[2], first compound 0.1725 µg/mL, partner 0.8 µg/mL | 0.333
[2], first compound 0.2 µg/mL, partner 0.105 µg/mL | 0.81
[2], first compound 0.2 µg/mL, partner 0.21 µg/mL | 0.694
[2], first compound 0.2 µg/mL, partner 0.42 µg/mL | 0.568
[2], first compound 0.345 µg/mL, partner 0.2 µg/mL | 0.777
[2], first compound 0.345 µg/mL, partner 0.4 µg/mL | 0.591
[2], first compound 0.345 µg/mL, partner 0.8 µg/mL | 0.295
[2], first compound 0.4 µg/mL, partner 0.105 µg/mL | 0.72
[2], first compound 0.4 µg/mL, partner 0.21 µg/mL | 0.652
[2], first compound 0.4 µg/mL, partner 0.42 µg/mL | 0.506
[2], first compound 0.69 µg/mL, partner 0.2 µg/mL | 0.555
[2], first compound 0.69 µg/mL, partner 0.4 µg/mL | 0.323
[2], first compound 0.69 µg/mL, partner 0.8 µg/mL | 0.196
[2], first compound 0.8 µg/mL, partner 0.105 µg/mL | 0.449
[2], first compound 0.8 µg/mL, partner 0.21 µg/mL | 0.351
[2], first compound 0.8 µg/mL, partner 0.42 µg/mL | 0.284

Conditions | Bliss interaction score
[3] | 0.0972
[4] | 0.0633
[5] | 0.0612
[6] | 0.0666

C[C@H]1COc2c(N3CCN(C)CC3)c(F)cc3c(=O)c(C(=O)O)cn1c23 [Levofloxacin] + CCC(C)C1C(=O)NC(=C)C(=O)NC(C(=O)NC(CSCC(C(=O)N1)NC(=O)/C(=C/C)/NC(=O)C(C(C)CC)N)C(=O)NC2C(SCC(NC(=O)CNC(=O)C3CCCN3C2=O)C(=O)NC(CCCCN)C(=O)NC4C(SCC(NC(=O)CNC(=O)C(NC(=O)C(NC(=O)C(NC(=O)CNC4=O)C)CC(C)C)CCSC)C(=O)NC(CC(=O)N)C(=O)NC(CCSC)C(=O)NC(CCCCN)C(=O)NC5C(SCC6C(=O)NC(C(=O)NC(CSC(C(C(=O)N6)NC(=O)C(NC5=O)C)C)C(=O)NC(CO)C(=O)NC(C(C)CC)C(=O)NC(CC7=CN=CN7)C(=O)NC(C(C)C)C(=O)NC(=C)C(=O)NC(CCCCN)C(=O)O)CC8=CN=CN8)C)C)C)CC(C)C [Nisin]
fitness, [1], one replicate, main component drawn
Conditions | first compound 0.001 µg/mL | first compound 0.002 µg/mL | first compound 0.0039 µg/mL | first compound 0.0078 µg/mL | first compound 0.0312 µg/mL | first compound 0.0625 µg/mL | first compound 0.125 µg/mL
partner 0.5 µg/mL | 0.923 | 0.904 | 0.898 | – | 0.0428 | 0.0426 | 0.0499
partner 1 µg/mL | 0.88 | 0.871 | 0.882 | – | 0.032 | 0.0609 | 0.0546
partner 1.25 µg/mL | – | 0.883 | 0.888 | 0.868 | – | – | –
partner 1.6 µg/mL | – | 0.744 | 0.734 | 0.701 | – | – | –
partner 2 µg/mL | 0.778 | 0.76 | 0.747 | – | 0.0482 | 0.0558 | 0.0347
partner 2.5 µg/mL | – | 0.696 | 0.319 | 0.598 | – | – | –
partner 3.2 µg/mL | – | 0.0329 | 0.0154 | 0.0243 | – | – | –
partner 4 µg/mL | – | – | – | – | 0.0425 | 0.0381 | 0.0437
partner 5 µg/mL | – | 0.0276 | 0.088 | 0.112 | – | – | –
partner 6.4 µg/mL | – | 0.0319 | 0.0555 | 0.0288 | – | – | –
partner 8 µg/mL | – | – | – | – | 0.0314 | 0.0402 | 0.0327
partner 16 µg/mL | – | – | – | – | 0.0291 | 0.0222 | 0.0121

[2], main component drawn
Conditions | fitness
first compound 0.1725 µg/mL, partner 1.6 µg/mL | 0.157
first compound 0.1725 µg/mL, partner 3.2 µg/mL | 0.0386
first compound 0.1725 µg/mL, partner 6.4 µg/mL | 0.0067
first compound 0.2 µg/mL, partner 0.4275 µg/mL | 0.906
first compound 0.2 µg/mL, partner 0.855 µg/mL | 0.956
first compound 0.2 µg/mL, partner 1.71 µg/mL | 0.0809
first compound 0.345 µg/mL, partner 3.2 µg/mL | 0.0036
first compound 0.345 µg/mL, partner 6.4 µg/mL | 0.0023
first compound 0.4 µg/mL, partner 0.4275 µg/mL | 0.844
first compound 0.4 µg/mL, partner 1.71 µg/mL | 0.0708
first compound 0.69 µg/mL, partner 1.6 µg/mL | 0.0158
first compound 0.69 µg/mL, partner 3.2 µg/mL | 0.0153
first compound 0.69 µg/mL, partner 6.4 µg/mL | 0.0526
first compound 0.8 µg/mL, partner 0.4275 µg/mL | 0.298
first compound 0.8 µg/mL, partner 0.855 µg/mL | 0.102
first compound 0.8 µg/mL, partner 1.71 µg/mL | 0.0697

main component drawn
Conditions | Bliss interaction score
[3] | -0.0668
[4] | 0.0523
[5] | -0.0976
[6] | 0.0616
